Measurements: US20060013871A1 (priority 2003, published 2006)

Assay: Particle size analysis in water suspension, Beckman LS230
Type: physicochemical
Conditions: feedstock of Example 5, water suspension, Beckman Coulter LS230
Experimental: The vessel was charged with 405 g of CO2. The agitator rpm was 1,776. The mixing process was run for 1 hr. The final temperature and pressure were 28° C. and 1,434 psig, respectively.
Particle size analysis was done in water suspension using Beckman LS230, however it is known that in an aqueous medium Poloxamer is likely to dissolve.

d16 particle size of feedstock: 21.8 micron | d50 particle size of feedstock: 41.21 microns | d84 particle size of feedstock: 71.05 microns
SMILES: CC(C)Cc1ccc(C(C)C(=O)O)cc1 (stereo not drawn) [Ibuprofen]
